In patent US12048691B2 (SPERO THERAPEUTICS, INC., priority 2020, dated 2024):
Converted amounts (≈) assume the structure as drawn. Structures can show the parent of a compound that is named as a salt. Where two headings read alike, the source gives them in different places. Marks after values point to notes of the source that are not given here.

Tests used:
[1] = test system: Enterobacterales overproducing AmpC; experiment: Broth microdilution susceptibility of isolates overexpressing AmpC; type: cell-based
Experimental: (§1) Frozen-form broth microdilution panels were manufactured by JMI Laboratories and contained cation-adjusted Mueller-Hinton broth. Quality assurance was performed by sterility checks, colony counts, and testing CLSI recommended quality control reference strains.

Enterobacterales (ENT) = experiment: Broth microdilution against US UTI pathogens 2019-2020; type: cell-based; conditions: All (3,567); cefuroxime: oral breakpoint
Experimental: (§2) This study assessed the in vitro activity of tebipenem and comparator agents against Enterobacterales (ENT) responsible for UTIs in the US during 2019-2020. A total of 3,576 ENT recovered from urine samples during the 2019-2020 STEWARD Surveillance Program were included in the study. Isolates were collected from medical centers in all 9 US Census Regions and were centrally tested for susceptibility by reference broth microdilution method. MIC interpretation was performed based on CLSI criteria.

P. mirabilis = experiment: as above; type: cell-based; conditions: P. mirabilis (235), cefuroxime: oral breakpoint
Experimental: as §2

E. coli [2] = experiment: as above; type: cell-based; conditions: E. coli (2,339); cefuroxime: oral breakpoint
Experimental: as §2

K. pneumoniae = experiment: as above; type: cell-based; conditions: K. pneumoniae (511); cefuroxime: oral breakpoint
Experimental: as §2

E. coli [3] = experiment: Broth microdilution MIC against characterized subsets of UTI E. coli (2018-2020); type: cell-based; conditions: for MIC90: read-out: MIC90
Source text: Isolates were collected from medical centers in all 9 US Census Regions and tested by broth microdilution. MIC interpretation was based on CLSI. Isolates that met MIC criteria were subjected to genome sequencing, followed by screening of extended-spectrum b-lactamase (ESBL) genes and epidemiology typing (MLST).

[4] = test system: P. aeruginosa isolates that overproduced AmpC; experiment: Broth microdilution susceptibility of isolates overexpressing AmpC; type: cell-based; conditions: P. aeruginosa (32)
Experimental: as §1

[5] = test system: bacteremia secondary to cUTI/AP; experiment: Efficacy in patients with cUTI or acute pyelonephritis and associated bacteremia; type: in vivo, human
Source text: The objective of this analysis was to evaluate the efficacy of TBP-PI-HBr in the subset of patients with associated bacteremia from a study of patients with either cUTI or acute pyelonephritis.

[6] = Enterobacterales (36), second cefuroxime line, footnote c (not given)
[7] = Escherichia coli, CTX-M a, read-out: MIC50
[8] = Escherichia coli, ESBL (360), read-out: MIC50
[9] = Escherichia coli, Non-ESBL (2035), read-out: MIC50
[10] = Escherichia coli, Non-ESBL (2035)

CO/N=C(\C(=O)N[C@@H]1C(=O)N2C(C(=O)O)=C(COC(N)=O)CS[C@H]12)c1ccco1 [Cefuroxime]
MIC50 [1]: > 64 µg/mL
MIC90 [1]: > 64 µg/mL
CLSI %1 ([1]; Enterobacterales (36)): 5.6%
CLSI % R ([1]; Enterobacterales (36)): 94.4%
CLSI % S ([1]; Enterobacterales (36)): 0.0^b %
CLSI %1 [1, 6]: 5.6%
CLSI % R [1, 6]: 94.4%
CLSI % S [1, 6]: 0.0^c %
% susceptible; CLSI (Enterobacterales (ENT)): (63.5) %
% susceptible; CLSI (P. mirabilis): (94.4) %
% susceptible; CLSI (P. mirabilis; listed as cefuroxime): 94.4%
% susceptible; CLSI (E. coli [2]): (63.1) %
% susceptible; CLSI (K. pneumoniae): (75.3) %

C[C@@H](O)[C@H]1C(=O)N2C(C(=O)OCOC(=O)C(C)(C)C)=C(SC3CN(C4=NCCS4)C3)[C@H](C)[C@H]12 [Tebipenem pivoxil]
MIC50 (E. coli [3]): 0.03/- (-) μg/mL

C[C@@H](O)[C@H]1C(=O)N2C(C(=O)O)=C(SCCN=CN)C[C@H]12 [Imipenem]
MIC50 [1]: 0.25 µg/mL (≈ 0.835 µM)
MIC90 [1]: 0.5 µg/mL (≈ 1.67 µM)
CLSI %1 ([1]; Enterobacterales (36)): 0.0%
CLSI % R ([1]; Enterobacterales (36)): 0.0%
CLSI % S ([1]; Enterobacterales (36)): 100.0%
MIC50 ([1]; Enterobacterales (36)): 0.25 μ/ml
MIC90 ([1]; Enterobacterales (36)): 0.5 μ/ml
MIC range ([1]; Enterobacterales (36)): ≤0.12 to 1 μ/ml
CLSI %1 [4]: 0.0%
CLSI % R [4]: 3.1%
CLSI % S [4]: 96.9%
MIC range [4]: 0.5 to 8 μ/ml

CN(C)c1cc(NC(=O)CNC(C)(C)C)c(O)c2c1C[C@H]1C[C@H]3[C@H](N(C)C)C(O)=C(C(N)=O)C(=O)[C@@]3(O)C(O)=C1C2=O [Tigecycline]
MIC50 [1]: 0.25 µg/mL (≈ 0.427 µM)
MIC90 [1]: 1 µg/mL (≈ 1.71 µM)
CLSI %1 ([1]; Enterobacterales (36)): 5.6%
CLSI % R ([1]; Enterobacterales (36)): 0.0%
CLSI % S ([1]; Enterobacterales (36)): 94.4^d %
MIC range ([1]; Enterobacterales (36)): ≤0.06 to 4 μ/ml

Cc1nnc(SCC2=C(C(=O)O)N3C(=O)[C@@H](NC(=O)Cn4cnnn4)[C@H]3SC2)s1 [CFZ, cefazolin]
% susceptible by CLSI M100 criteria (E. coli [3]; CTX-M a): 0.0%
% susceptible by CLSI M100 criteria (E. coli [3]; ESBL (360)): 0.6%
MIC50 (E. coli [3]; [7]): > 32 µg/mL
MIC90 (E. coli [3]; Escherichia coli, CTX-M a): > 32 µg/mL
MIC50 (E. coli [3]; [8]): > 32 µg/mL
MIC90 (E. coli [3]; Escherichia coli, ESBL (360)): > 32 µg/mL
MIC50 (E. coli [3]; [9]): 2 µg/mL (≈ 4.4 µM)
MIC90 (E. coli [3]; [10]): 8 µg/mL (≈ 17.6 µM)
% susceptible by CLSI M100 criteria (E. coli [3]; Non-ESBL (2035)): 96.4%

CO/N=C(\C(=O)N[C@@H]1C(=O)N2C(C(=O)O)=C(CSc3nc(=O)c(=O)[nH]n3C)CS[C@H]12)c1csc(N)n1 [Ceftriaxone, ceftriaxone]
% susceptible by CLSI M100 criteria (E. coli [3]; CMYb (33)): 0.0%
% susceptible by CLSI M100 criteria (E. coli [3]; CTX-M a): 0.0%
% susceptible by CLSI M100 criteria (E. coli [3]; DHA(7)): 28.6%
% susceptible by CLSI M100 criteria (E. coli [3]; ESBL (360)): 6.4%
MIC50 (E. coli [3]; [7]): > 8 µg/mL
MIC90 (E. coli [3]; Escherichia coli, CTX-M a): > 8 µg/mL
MIC50 (E. coli [3]; Escherichia coli, DHA(7), read-out: MIC50): 2 µg/mL (≈ 3.61 µM)
MIC50 (E. coli [3]; [8]): > 8 µg/mL
MIC90 (E. coli [3]; Escherichia coli, ESBL (360)): > 8 µg/mL
MIC50 (E. coli [3]; [9]): ≤ 0.06 µg/mL
MIC90 (E. coli [3]; [10]): 0.12 µg/mL (≈ 0.216 µM)
% susceptible by CLSI M100 criteria (E. coli [3]; Non-ESBL (2035)): 100%
% susceptible by CLSI M100 criteria (E. coli [3]; Non-ST131 (203)): 37.9%
% susceptible by CLSI M100 criteria (E. coli [3]; ST131 (222)): 20.3%
MIC50 [1]: > 8 µg/mL
MIC90 [1]: > 8 µg/mL
CLSI %1 ([1]; Enterobacterales (36)): 13.9%
CLSI % R ([1]; Enterobacterales (36)): 63.9%
CLSI % S ([1]; Enterobacterales (36)): 22.2%

C[C@@H](O)[C@H]1C(=O)N2C(C(=O)OCOC(=O)C(C)(C)C)=C(SC3CN(C4=NCCS4)C3)[C@H](C)[C@H]12 [Tebipenem pivoxil HBr, tebipenem pivoxil hydrobromide]
Clinical cure rate ([5]; EOT): 100%
Clinical cure rate ([5]; TOC): 97.9%
Overall response rate ([5]; end-of-treatment (EOT)): 93.6%
Clinical cure rate ([5]; late-follow-up (LFU) visit): approximately 89%
Overall response rate ([5]; test-of-cure (TOC)): 72.3%

Piperacillin-tazobactam
CLSI %1 ([1]; Enterobacterales (36)): 19.4%
CLSI % R ([1]; Enterobacterales (36)): 33.3%
CLSI % S ([1]; Enterobacterales (36)): 47.2%
MIC50 ([1]; Enterobacterales (36)): 32 μ/ml
MIC90 ([1]; Enterobacterales (36)): >128 μ/ml
CLSI %1 [4]: 40.6%
CLSI % R [4]: 53.1%
CLSI % S [4]: 6.2%
MIC50 [4]: 128 μ/ml
MIC90 [4]: >128 μ/ml
